Data set [1] can be described thus: Tolerability of subcutaneous dosing in infected neutropenic mice. Format: in vivo. As for the experimental part: Dose-fractionation studies were performed for E. coli ATCC 25922 and K. pneumoniae 104 in the thigh infection model. Two hours after infection, treatment with polymyxin B was administered subcutaneously over 24 h at the following dosing regimens: 4–128 mg/kg q6h [total daily dose (TDD) 16–512 mg/kg]; 8–256 mg/kg q12h (TDD 16–512 mg/kg); 256–512 mg/kg q24h (TDD 256–512 mg/kg).
For dose–response studies, a 6 hourly dosing regimen of 1–32 mg/kg was studied in the thigh infection model. Mice were infected with E. coli […], 15, 51 or 71 or K. pneumoniae ATCC 43816, 17, 58 or 74.
Animals were humanely euthanized 24 h (t = 24 h) after the first dose, unless the welfare of the animals necessitated earlier termination, following animal welfare regulations. Excised thighs were transferred to a pre-cooled 14 mL polypropylene tube containing 2 mL of PBS and were homogenized using a T25 ULTRA-TURRAX (IKA-Werke GmbH & Co, Staufen, Germany). A 10-fold dilution series was prepared and 3 × 10 μL was plated per dilution. The following day, colonies were counted and the number of cfu per thigh was calculated.

In data set [2] the test system is plasma proteins. Put plainly: Plasma protein binding by ultrafiltration. The conditions noted are these: plasma of infected mice treated with polymyxin B, corrected for non-specific binding, LC-MS/MS, mean ± SD, no concentration dependency. Format: in vitro ADME. As for the experimental part:
(§1) The binding of polymyxin B to plasma proteins was determined via ultrafiltration. Polymyxins have a tendency to non-specifically bind to different kinds of material, including ultrafiltration filters. Thus, to correct for polymyxin B loss on the filter, an experiment was performed in which ultrafiltrated (UF) phosphate buffer was spiked with multiple polymyxin B concentrations (ranging from 0.75 to 8 mg/L) and subsequently concentrations were measured. […] Using this relationship, the non-specific binding (NSB) for each measured polymyxin B UF concentration was calculated. Correction for the measured polymyxin B UF concentration using this NSB value was according to the following formula: polymyxin B UF Corrected Concentration = Measured polymyxin B UF Concentration × (1−NSB).
(§2) Polymyxin B concentrations in plasma, BAL and ultrafiltrates were determined by a validated LC-MS/MS method,[18] with a lower limit of quantification (LOQ) of 0.2 mg/L for plasma and 0.05 mg/L for BAL fluid and ultrafiltrates. […] The residues were dissolved in 0.1 mL of 0.1% formic acid in water and analysed by LC-MS/MS. […] Polymyxin B was analysed on an XBridge C18 column (5 µm, 2.1 × 150 mm; Waters). […] Calibration curves of polymyxin B ranged from 0.1 to 10 mg/L for plasma and ultrafiltrates, and were quantified with a quadratic regression mode. […]

Data set [3] concerns four E. coli and four K. pneumoniae strains. Put plainly: Dose-response study, thigh infection model, summary over all eight isolates. Format: in vivo, Escherichia coli, Klebsiella pneumoniae. The following applies: q6h dosing, mouse thigh infection. As for the experimental part: Experiments were carried out in the Erasmus Laboratory Animal Science Centre in Rotterdam, The Netherlands in accordance with the EU Animal Directive 2010/63/EU 2010 directive[14] (licence number AVD101002016702) as described before,[15] with approval of the institutional Animal Welfare Body. Outbred female CD-1 mice obtained from Charles River Germany, weighing 20–25 g, 7–8 weeks old, were used in the experiments. The mice were housed under standard conditions with drink and feed supplied ad libitum.
Mice were rendered neutropenic by intraperitoneal injection of cyclophosphamide of 150 and 100 mg/kg, 4 days and 1 day before infection, respectively. […]
Animals were humanely euthanized 24 h (t = 24 h) after the first dose, unless the welfare of the animals necessitated earlier termination, following animal welfare regulations. […] The following day, colonies were counted and the number of cfu per thigh was calculated.
The drug effect was determined by the difference between the log10 cfu values at t = 0 h (mean value of two mice) and t = 24 h (value of individual mice) expressed as Δlog10 cfu. […]
A sigmoid maximum effect (Emax) model was fitted to the PK/PD index versus Δlog10 cfu data by non-linear regression, and static or a 1 log or 2 log kill effect were determined using GraphPad Prism 8.0 (GraphPad, Inc., San Diego, CA, USA). […]

Data set [4] in a line: Non-specific binding to ultrafiltration filter. The following applies: LC-MS/MS. Format: physicochemical. How it is done:
as §1, §2

Structures can show the parent of a compound that is named as a salt. Bridge positions count the residues as written; N and C are the ends. Square brackets hold non-standard residues; d marks the D form. Peptide text beside a SMILES is read from it. * marks the point of attachment. X1 = CC[C@H](C)CCCCC(=O)*; Dab = NCC[C@H](N)C(=O)O

In the case of `CC[C@H](C)CCCCC(=O)N[C@@H](CCN)C(=O)N[C@H](C(=O)N[C@@H](CCN)C(=O)N[C@H]1CCNC(=O)[C@H]([C@@H](C)O)NC(=O)[C@H](CCN)NC(=O)[C@H](CCN)NC(=O)[C@H](CC(C)C)NC(=O)[C@@H](Cc2ccccc2)NC(=O)[C@H](CCN)NC1=O)[C@@H](C)O` [polymyxin B, Polymyxin B sulphate salt] (X1-[Dab]T[Dab][Dab][Dab][dF]L[Dab][Dab]T; lactam 4-C), the “Mice in which the last (fourth) administration was not tolerated” value in data set [1] (32 mg/kg q6h (TDD 128 mg/kg) s.c.) is 2/4. Further, the Tolerability entry in data set [1] (doses >64 mg/kg s.c., dose fractionation studies, neutropenic infected mice) is “not tolerated”. In addition, in data set [2], the “%fu (percent fraction unbound)” value was 20% ± 4.0%. For the same molecule, in data set [3], the “Isolates in which a 1 log kill effect was observed” value is listed as 3/8 and the “Isolates in which a 2 log kill effect was observed” value is given as 1/8. In addition, the “Non-specific binding (NSB)” value in data set [4] (phosphate buffer spiked at 0.75 mg/L) is listed as 77% ± 8.3%. In data set [4] (phosphate buffer spiked at 8 mg/L), the “Non-specific binding (NSB)” value is 20% ± 0.6%.

(Values after article PMC10377753, “Pharmacokinetic and pharmacodynamic properties of polymyxin B in Escherichia coli and Klebsiella pneumoniae murine infection models” (Journal of Antimicrobial Chemotherapy, 2023).)
